Entries after “also recorded” stand apart in the source; their conditions may differ.
Test system: ESC-induced Oct4-GFP re-activation in NSCs
Assay: CLEAR analysis of ESC fusion-induced reprogramming (PEG-induced fusion of Z-Red ESCs and CIPOE NSCs, flow cytometry)
Text: CLEAR strategy uses engineered ESCs and NSCs for monitoring fusion-induced DsRed expression and reprogramming-induced GFP expression (FIG. 1A). Z-Red ESCs were derived from a clonal ESC line containing one copy of a transgene (CAG-loxP-LacZ::neomycin-polyA-loxP-DsRed.T3) as a Cre recombination excision reporter.
Adult NSCs were isolated from Oct4-GFP (GOF 18-A PE-EGFP) transgenic mice and transduced by retroviruses to stably co-express Cre and the puromycin resistance gene through a bicistronic cassette (termed CIPOE NSCs hereafter). Somatic cells with Oct4-GFP transgene integration have been used previously to investigate reprogramming, in which the regulatory elements of Oct4 direct reliable GFP reactivation from somatic genomes in reprogrammed ESC-like hybrid cells (also see FIG. 3). Multiple CIPOE NSC lines from Oct4-GFP transgenic mice were established, characterized and used for subsequent cell fusion experiments.
To quantitatively analyze the reprogramming-induced Oct4-GFP re-activation, dual-color flow cytometry was used to display and measure the cell population that underwent PEG-induced cell fusion. Viable cells were identified by their typical FSC (Forward Scatter) and SSC (Side Scatter) properties. To ensure appropriate gating for […] and DsRed+ events and to compensate the spectrum crossover of GFP and DsRed signals, the system was first calibrated using multiple control cells, including Z-Red ESCs, CIPOE NSCs, mixed Z-Red ESCs and CIPOE NSCs without PEG. Z-Red ESCs transfected with a constitutive Cre expression plasmid, and CIPOE NSCs transfected with a Cre excision reporter plasmid (FIG. 4A).
ESC fusion-induced Oct4 re-activation from NSCs was quantitatively measured using two different approaches. In the first approach, the reprogramming frequency (Rf) is determined by the ratio of GFP DsRed+ cells to total DsRed+ cells. […] In the second approach, the reprogramming efficacy is determined by the distribution of GFP fluorescence intensities of individual cells from the DsRed+ population (FIG. 4C). This analysis provides a measurement of the efficiency of Oct4-GFP re-activation in NSCs after successful fusion.
The protocol was optimized for PEG-induced cell fusion between ESCs and NSCs to achieve maximum efficiency and minimal toxicity. Equal numbers of ESCs and NSCs were mixed thoroughly and spun down in PBS. The pellet was loosened by gentle tapping and 50% PEG (500 μl for 1×10^7 cells) was added to the cells continuously over one minute while swirling the mixture in 37° C. water bath Next, 2 ml of ESC medium was layered on top of PEG-cell mixture and one-minute incubation in 37° C., followed by low-speed centrifugation at 1,800 rpm for 5 minutes. After removing the supernatant, the pellet was incubated with ESC medium for one minute, washed, resuspended and plated onto gelatin-coated dishes and grown in Dubelcco's Modified Eagle's Medium, 15% fetal bovine serum supplemented with mouse leukemia inhibitory factor (ESGRO), 0.1 mM nonessential amino acids, 0.1 mM β-mercaptoethanol, and 50 U/ml penicillin/50 μg/ml streptomycin (ESC medium). […] The following pharmacological inhibitors were applied in ESC-fusion experiments only during the first 48 hours after fusion. DMOG (5-10 μM; BioMol), Anacardic acid (5-10 μM; Calbiochem), Trichostatin A (TSA, 100 nM-1 μM; Sigma) and azidothymidine (AZT, 1-5 μM; Sigma).

[1] = 10 μM, 48-hour treatment, analyzed at day 4, vs DMSO

COC(=O)CNC(=O)C(=O)OC [DMOG, dimethyloxalylglycine] was tested, and the “Effects (on reprogramming)” value (5 μM, applied only during the first 48 hours after fusion) was “strong reprogramming deficit”, the reprogramming efficacy [1] was “significant decreases” and the reprogramming frequency [1] was “significant decreases”. The “ESC-induced Oct4 re-activation in NSCs” value (inhibitor treatment after fusion) was “considerably reduced; also recorded: attenuates”.
